Data: patent US20210069157A1, “AGENT FOR TREATMENT OF PBC” (Kowa Company, Ltd, priority 2016, published 2021)

Legend:
[1] = test system: patients with dyslipidemia showing a high level of triglyceride (TG); assay: Pooled clinical trial data (8 tests, 12 weeks or more): effects on ALP and total bilirubin; format: in vivo, human; design: ALP level, Rate of change (LSmean) / total bilirubin level, Rate of change (LSmean): unit not given here; conditions: for ALP level, Rate of change (LSmean) / total bilirubin level, Rate of change (LSmean): 12 weeks vs baseline; for ALP level, Rate of change (LSmean): placebo 0.5; for total bilirubin level, Rate of change (LSmean): placebo 6.1
Procedure: Compound. A was administered at a dose of 0.05 to 0.4 mg per day to Compound A group. […] Note that comparisons between the groups were investigated by using covariance analysis with baseline levels used as covariates.

[2] = test system: patients with dyslipidemia showing a high level of TG being treated with ursodeoxycholic acid; assay: Pooled clinical trial data, subset being treated with ursodeoxycholic acid: effects on ALP and total bilirubin; format: in vivo, human
Procedure: Data of patients being treated with ursodeoxycholic acid (15 cases in total) were extracted from the data obtained in a clinical trial (8 tests with an administration period of 12 weeks or more) of Compound A, which had been performed for patients with dyslipidemia showing a high level of TG, the effects of Compound A for the ALP and the total bilirubin were investigated. Compound A was administered at a dose of 0.05 to 0.4 mg per day to Compound A group. Further, placebo was administered to a control group. Each compound was administered to Compound A group and a control group for 12 weeks, and changes in the levels of ALP before and after the administration are shown in Table 3 and FIG. 3, and changes in the levels of total bilirubin before and after the administration are shown in Table 4 and FIG. 4. Note that comparisons between the groups were investigated by using covariance analysis with baseline levels used as covariates.

[3] = 0.05 to 0.4 mg per day, 12 weeks
[4] = patients being treated with ursodeoxycholic acid, 12 weeks

## CC[C@@H](Oc1cccc(CN(CCCOc2ccc(OC)cc2)c2nc3ccccc3o2)c1)C(=O)O [Compound A, (R)-2-[3-[[N-(benzoxazol-2-yl)-N-3-(4-methoxyphenoxy)propyl]aminomethyl]phenoxy] butyric acid]
[1]; [3]
  effect on level of ALP as compared with placebo: decreases dose-dependently
  effect on level of total bilirubin as compared with placebo: decreases dose-dependently
[1]; Compound A 0.05 mg/day
  ALP level, Rate of change (LSmean): −13.4
  total bilirubin level, Rate of change (LSmean): −16.4
[1]; Compound A 0.05 mg/day, 12 weeks, n 37, baseline 0.8
  total bilirubin level, 12 Weeks: 0.6 mg/dL
[1]; Compound A 0.05 mg/day, 12 weeks, n 37, baseline 234.4
  ALP level, 12 Weeks: 201.5 IU/L
[1]; Compound A 0.1 mg/day
  ALP level, Rate of change (LSmean): −22.1
  total bilirubin level, Rate of change (LSmean): −7.7
[1]; Compound A 0.1 mg/day, 12 weeks, n 127, baseline 0.8
  total bilirubin level, 12 Weeks: 0.7 mg/dL
[1]; Compound A 0.1 mg/day, 12 weeks, n 127, baseline 228.4
  ALP level, 12 Weeks: 177.4 IU/L
[1]; Compound A 0.2 mg/day
  ALP level, Rate of change (LSmean): −29.4
  total bilirubin level, Rate of change (LSmean): −11.9
[1]; Compound A 0.2 mg/day, 12 weeks, n 846, baseline 0.8
  total bilirubin level, 12 Weeks: 0.7 mg/dL
[1]; Compound A 0.2 mg/day, 12 weeks, n 846, baseline 235.6
  ALP level, 12 Weeks: 164.7 IU/L
[1]; Compound A 0.4 mg/day
  ALP level, Rate of change (LSmean): −35.3
  total bilirubin level, Rate of change (LSmean): −10.4
[1]; Compound A 0.4 mg/day, 12 weeks, n 319, baseline 0.8
  total bilirubin level, 12 Weeks: 0.6 mg/dL
[1]; Compound A 0.4 mg/day, 12 weeks, n 319, baseline 225.1
  ALP level, 12 Weeks: 145.0 IU/L
[1]; Compound A at a dose of 0.1 mg or more, 12 weeks
  effect on level of ALP compared with fenofibrate 200 mg per day: decreases the level of ALP more strongly than the fenofibrate at the maximum clinical dose
[2]; Compound A 0.05 to 0.4 mg per day, 12 weeks vs baseline, patients on UDCA, placebo 41.2
  total bilirubin level, Rate of change (LSmean): −18.5
[2]; Compound A 0.05 to 0.4 mg per day, 12 weeks vs baseline, patients on UDCA, placebo −1.1
  ALP level, Rate of change (LSmean): −22.6
[2]; Compound A 0.05 to 0.4 mg per day, 12 weeks, patients on UDCA, n 13, baseline 0.7
  total bilirubin level, 12 Weeks: 0.6 mg/dL
[2]; Compound A 0.05 to 0.4 mg per day, 12 weeks, patients on UDCA, n 13, baseline 295.5
  ALP level, 12 Weeks: 229.5 IU/L
[2]; [4]
  effect on level of ALP: decreases
  effect on level of total bilirubin: decreases
